Where two headings read alike, the source gives them in different places.
Legend:
rBtGH146 = molecular target: T1, rBtGH146 (Bacteroides thetaiotaomicron, UniProt Q8AAW3); test: inactivation kinetics, residual hydrolysis of 4-nitrophenyl beta-L-arabinofuranoside, A405; assay type: biochemical
T1 construct: gene BT_0349; recombinant, expressed in E. coli; 92 kDa on gel; produced by published procedures
T1 sequence (Q8AAW3 1-802): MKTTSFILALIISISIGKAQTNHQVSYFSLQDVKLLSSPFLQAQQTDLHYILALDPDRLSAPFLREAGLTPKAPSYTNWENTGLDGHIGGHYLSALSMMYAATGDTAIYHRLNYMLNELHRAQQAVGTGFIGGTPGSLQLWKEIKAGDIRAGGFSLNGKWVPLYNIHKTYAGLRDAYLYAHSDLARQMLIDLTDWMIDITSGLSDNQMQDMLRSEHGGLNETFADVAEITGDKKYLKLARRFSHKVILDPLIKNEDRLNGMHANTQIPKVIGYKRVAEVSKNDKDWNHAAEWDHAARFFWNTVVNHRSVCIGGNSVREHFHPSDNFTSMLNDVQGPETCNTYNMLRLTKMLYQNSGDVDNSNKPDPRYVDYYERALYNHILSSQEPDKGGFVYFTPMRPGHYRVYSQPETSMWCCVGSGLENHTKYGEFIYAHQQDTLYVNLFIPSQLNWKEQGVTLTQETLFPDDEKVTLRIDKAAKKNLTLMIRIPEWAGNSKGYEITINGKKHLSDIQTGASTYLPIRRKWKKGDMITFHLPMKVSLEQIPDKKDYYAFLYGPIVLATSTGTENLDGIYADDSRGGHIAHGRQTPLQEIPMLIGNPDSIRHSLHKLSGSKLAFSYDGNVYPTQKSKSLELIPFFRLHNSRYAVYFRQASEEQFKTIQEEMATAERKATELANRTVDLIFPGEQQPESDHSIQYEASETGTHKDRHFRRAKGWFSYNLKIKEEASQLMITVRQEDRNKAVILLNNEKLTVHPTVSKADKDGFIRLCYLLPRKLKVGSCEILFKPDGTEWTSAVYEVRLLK
Source text: inactivation kinetics, residual hydrolysis of 4-nitrophenyl beta-L-arabinofuranoside, A405 on rBtGH146

rHypBA1 = molecular target: T2, rHypBA1 (Bifidobacterium longum, UniProt E8MGH8); test: as above; assay type: biochemical
T2 construct: gene hypBA1; recombinant; 74 kDa; produced by published procedures
T2 sequence (E8MGH8 1-658): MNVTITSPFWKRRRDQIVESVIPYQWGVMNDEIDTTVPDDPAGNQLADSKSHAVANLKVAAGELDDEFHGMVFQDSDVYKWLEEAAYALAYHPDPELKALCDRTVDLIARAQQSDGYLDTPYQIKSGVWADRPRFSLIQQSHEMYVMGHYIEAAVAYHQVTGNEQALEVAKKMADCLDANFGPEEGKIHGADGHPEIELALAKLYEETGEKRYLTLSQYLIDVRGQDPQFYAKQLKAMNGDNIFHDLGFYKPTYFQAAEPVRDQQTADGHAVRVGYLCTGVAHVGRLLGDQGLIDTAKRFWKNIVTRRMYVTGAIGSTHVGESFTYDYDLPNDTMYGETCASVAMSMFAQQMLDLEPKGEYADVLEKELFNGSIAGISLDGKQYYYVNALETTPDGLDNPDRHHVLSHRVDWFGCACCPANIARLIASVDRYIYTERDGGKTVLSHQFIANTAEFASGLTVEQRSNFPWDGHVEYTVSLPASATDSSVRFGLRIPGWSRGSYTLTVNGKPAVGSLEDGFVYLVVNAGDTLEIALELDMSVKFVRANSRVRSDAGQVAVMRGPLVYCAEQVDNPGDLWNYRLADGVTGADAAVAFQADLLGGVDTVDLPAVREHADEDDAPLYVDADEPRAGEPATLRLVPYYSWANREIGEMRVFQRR
Source text: inactivation kinetics, residual hydrolysis of 4-nitrophenyl beta-L-arabinofuranoside, A405 on rHypBA1

[1] = read-out: rBtGH146 / KI, covalent, time-dependent, pH 7.5 HEPES, 200 mM NaCl, 1 mM DTT, 37 °C

SMILES | KI (inactivation) (rBtGH146; [1]) | kinact/KI (rHypBA1) | KI (inactivation) (rHypBA1; read-out: rHypBA1 / KI, covalent, time-dependent, pH 4.5 acetate, 1 mM DTT, 37 °C) | KI (inactivation) (rBtGH146; covalent, time-dependent, pH 7.5 HEPES, 200 mM NaCl, 1 mM DTT, 37 °C, read-out: rBtGH146 / KI)
CN1C(=CC=CC=CC2=[N+](CCCCCC(=O)NCCCCCCCCOC[C@H]3[C@H](O)[C@@H](O)[C@H]4O[C@@H]34)c3ccccc3C2(C)C)C(C)(C)c2ccccc21 [compound 4, Cy5-tagged epoxide ABP 4] | 140 ± 10 µM | < 0.1 M⁻¹ s⁻¹ |  | 
NCCCCCCCCN1[C@@H]2[C@H](O)[C@@H](O)[C@H](CO)[C@@H]21 (stereo partly drawn) [compound 7, aziridine 7] | 190 ± 20 µM |  | 280 ± 90 µM | 
OC[C@H]1[C@H](O)[C@@H](O)[C@H]2N[C@@H]12 [compound 2, β-L-arabinofuranosyl cyclophellitol aziridine] |  | > 4200 M⁻¹ s⁻¹ |  | 350 ± 40 µM

— PMC10728902, “β-L-Arabinofurano-cyclitol Aziridines Are Covalent Broad-Spectrum Inhibitors and Activity-Based Probes for Retaining β-L-Arabinofuranosidases” (ACS Chemical Biology, 2023)
